# Patent US20150050682A1, “DIRECT ASSAY OF THIOREDOXIN REDUCTASE ACTIVITY” (University of Vermont and State Agricultural College, priority 2013, published 2015)
# What was measured:
# [1] = test system: thioredoxin reductase (TR); test: Selenocystine TR assay (SC-TR assay); type: biochemical, mouse; details: for Efficiency of reduction by TR: L- versus racemic selenocystine as substrate; for Inhibition of TR activity (NADPH turnover, A340): C10 whole cell lysates, FIG. 2B
# Description: Selenocystine TR assay. Cells were plated into 60 mm tissue culture dishes and the following day were washed with ice-cold 1× phosphate buffered saline (PBS) and lysed in the culture dish by adding either TE Buffer (50 mM Tris/HCl pH 7.5, 1 mM EDTA) or NP-40 lysis buffer (150 mM NaCl, 50 mM Tris pH 8.0, 1% NP-40, 1 μg/mL leupeptin, 1 μg/mL aprotinin, 1 mM NaF, 1 mM NaVO3, 1 mM PMSF) as indicated in the text. Cell lysates were scraped from culture dishes on ice and transferred to 1.5 mL microcentrifuge tubes. TE buffer lysates were sonicated at 4° C. for 30 sec with 1-2 sec pulses using a sonic dismembrator. TE and NP-40 lysates were centrifuged for 10 min at 14,000 rpm at 4° C. and protein concentrations of the supernatants were determined by reading the absorption at 595 nm of Bradford reagent. A total reaction volume of 100 μl was assembled in a clear 96-well round bottom microplate containing the following: (i) master mix containing 1 mM NADPH and 2 mM selenocystine (SC) in ddH2O (addition of 40 μl of master mix to 100 μl reaction volume yields final concentrations of 400 μM and 800 μM respectively), (ii) 25 μg or the largest practical amount of protein, (iii) TE or NP-40 lysis buffer. Controls for each sample included protein only control, protein and NADPH control, and protein and SC control. Control master mixes contained: (i) 2 mM NADPH in ddH2O (addition of 20 μl to 100 μl reaction volume yields final concentration of 400 μM), (ii) 2 mM SC prepared as described above (addition of 40 μl to 100 μl reaction volume yields final concentration of 800 μM).
# Each master mix was separately placed into a clean, sterile pipet basin and pipetted quickly into the wells of a 96-well microplate with a multichannel pipetter making sure to avoid bubbles. This approach was used in order that each sample was exposed to the master mix at the same time to ensure homogeneity of results. The plate was read in 30 sec intervals over a 20 min time period at 340 nm on a Synergy HT Microplate Reader™ (BioTek). Because the assay monitors the consumption of NADPH at 340 nm, an activity can be calculated by using Beer's Law and an extinction coefficient of 6,220 M^−1 cm^−1 for NADPH. The activity can be reported as mol NADPH consumed per min. Bradford assays for total protein concentration determination can be performed directly in each well of the 96-well plate. If this is done, then the activity can be reported as mol NADPH consumed per min per mg of total protein. For the data presented in FIGS. 2 and 5, 1 unit of TR activity is defined as the amount of TR that will consume 1 nmol of NADPH per min.
# [2] = test system: thioredoxin reductase (TR); test: Discontinuous insulin end-point TR assay; type: biochemical, mouse; details: for Inhibition of TR activity: C10 whole cell lysates, end-point TR assay, FIG. 2A
# Description: Discontinuous insulin end-point assay. Cell lysates were prepared in TE buffer as described above and the sonicated lysates were centrifuged for 10 min at 14,000 rpm at 4° C. Supernatants were transferred to fresh 1.5 mL microcentrifuge tubes and protein concentrations were determined by a Bradford assay. A total reaction volume of […] was assembled by addition of 20 μL master mix to 20 μL of 25 μM E. coli Trx solution. The master mix contained 50 mM Tris/Cl pH 7.5, 1 mM EDTA, 900 μM NADPH (257 μM final), and 4.5 mg/mL insulin (1.3 mg/mL final). After addition of all of the components to a cuvette, the reactions were incubated at room temperature for 60 min and terminated by the addition of 930 μL of 6 M guanidine•HCL containing 1 mM 5,5′-dithio-bis(2-nitrobenzoic acid) (DTNB) solution prepared in ethanol; activity was detected by reading absorbance at 412 nm in a spectrophotometer. TR activity was determined by calculating the difference between identical samples +/− Trx. Here the activity is expressed as arbitrary units as determined by the raw A412 reading. Alternatively, the number of units can be calculated by using Beer's Law and an extinction coefficient of 13,600 M^−1 cm^−1 for the TNB anion. One unit of TR activity is the amount of enzyme catalyzing the reduction of 1 μM of DTNB per min (formation of 2 μmol TNB anion).
# glutathione reductase = molecular target: T1, glutathione reductase (Homo sapiens, UniProt P00390); test: Reduction of selenocystine by glutathione reductase in vitro; type: biochemical; details: same experimental conditions under which TR reduces selenocystine
# T1 sequence (P00390 44-522): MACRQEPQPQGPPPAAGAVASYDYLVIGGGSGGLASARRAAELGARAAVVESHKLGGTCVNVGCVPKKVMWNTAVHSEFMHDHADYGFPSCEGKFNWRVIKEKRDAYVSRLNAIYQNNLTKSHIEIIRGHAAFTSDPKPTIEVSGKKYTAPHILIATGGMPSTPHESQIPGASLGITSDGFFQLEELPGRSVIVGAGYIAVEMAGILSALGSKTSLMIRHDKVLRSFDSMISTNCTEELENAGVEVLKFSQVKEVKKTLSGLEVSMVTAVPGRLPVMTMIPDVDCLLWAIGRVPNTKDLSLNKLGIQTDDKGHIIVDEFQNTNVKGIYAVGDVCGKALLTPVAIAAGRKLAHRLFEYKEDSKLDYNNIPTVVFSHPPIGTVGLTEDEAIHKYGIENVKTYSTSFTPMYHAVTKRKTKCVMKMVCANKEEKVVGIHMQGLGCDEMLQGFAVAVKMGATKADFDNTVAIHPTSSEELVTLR
# TR1 = test: Immunoblot of TR1 expression after siRNA knockdown in C10 cells; type: cell-based, mouse; details: Western blot, FIG. 3E
# Text: TR over-expression and gene silencing. Full length TR1 was amplified from pCMV6-XL4 vector by PCR using specific forward (5′-[…]-3′) and reverse (5′-[…]-3′) primers and subsequently cloned into pcDNA 3.1 mammalian expression vector. Insertion of WT-TR1 full-length cDNA, including the 3′ SECIS element, into pcDNA 3.1 was confirmed by sequencing using the appropriate forward and reverse primer sets (T7 Forward: BGH Reverse). WT-TR1 or empty pcDNA 3.1 vector were transfected into C10 cells according to manufacturer's protocol. Specific siRNA to TR1 (si-TR1, 5′-[…]-3′) and a control (“scramble”) RNA (5′-[…]-3′) were introduced into C10 cells following the manufacturers guidelines (Dharmacon).
# Immunoblotting. Equal protein amounts from cell lysates were separated on 10% gels by SDS-PAGE. Proteins were transferred to PVDF membrane for immunoblotting, and membranes then were blocked in 5% milk (Tris buffered saline with 0.1% Tween, TBST) for 1 hr at room temperature. Anti-TR1 (1:1000) anti-Trxl (1:2000) and anti-actin (1:5000) antibodies were diluted in 5% milk/TBST and incubated with membranes for 1 hr at room temperature. […] Membranes were washed 5× with TBST and HRP secondary antibodies were detected using Enhanced Chemiluminescent™ solution and collected on X-ray film.
compound,measurement,setting,value
"N[C@@H](C[Se][Se]C[C@H](N)C(=O)O)C(=O)O (racemic) [racemic selenocystine, selenocystine]",Efficiency of reduction by TR,[1],equal efficiencies
N[C@@H](C[Se][Se]C[C@H](N)C(=O)O)C(=O)O [L-selenocystine],Efficiency of reduction by TR,[1],equal efficiencies
C=CC=O [acrolein],Inhibition of TR activity in cells over expressing TR1 and TR2,"[2]; C10 cells transfected with TR1 and TR2, TE buffer lysates, end-point assay, FIG. 2C",inhibited to an equal extent
same,Inhibition of TR activity,[2],inhibition of total TR activity
same,Inhibition of TR activity,[2]; listed as Acrolein,completely inhibits
same,Inhibition of TR activity in cells over expressing TR1 and TR2,"[1]; C10 cells transfected with TR1 and TR2, TE buffer lysates, SC-TR assay, FIG. 2D",inhibited to an equal extent
same,"Inhibition of TR activity (NADPH turnover, A340)",[1]; SC-TR assay,complete inhibition
same,"Inhibition of TR activity (NADPH turnover, A340)","[1]; SC-TR assay, listed as Acrolein",completely inhibits
CC(=O)OC[C@H]1O[C@@H]([S-])[C@H](OC(C)=O)[C@@H](OC(C)=O)[C@@H]1OC(C)=O.CCP(CC)CC.[Au+] [auranofin],"Sensitivity of TR activity to inhibitor, TE buffer versus NP-40 buffer","[1]; lysates from treated C10 cells prepared in TE buffer or NP-40 lysis buffer, FIG. 4",equivalent
N[C@@H](C[Se][Se]C[C@H](N)C(=O)O)C(=O)O [selenocystine],Reduction of substrate by glutathione reductase,glutathione reductase,does not reduce
"siRNA: Specific siRNA to TR1 (si-TR1, 5′-CCAUAGAGGGCGAAUUUAAUU-3′) (listed as RNA, chemistry not given here)",TR activity after knockdown of TR1,"[1]; C10 cells transfected with siRNA, SC-TR assay, FIG. 3A",reduced TR activity below control levels
same,TR1 protein expression after knockdown,TR1,reduced the expression of TR1 for up to 48 hrs
